From article PMC9962964, “^68Ga-Labeled [Thz^14]Bombesin(7–14) Analogs: Promising GRPR-Targeting Agonist PET Tracers with Low Pancreas Uptake” (Molecules, 2023)
Where two headings read alike, the source gives them in different places.

Experiments:
[1] = pH 7.4
Method: Briefly, aliquots (2 μL) of the ^68Ga-labeled peptides were added into a 15 mL falcon tube containing 3 mL of n-octanol and 3 mL of 0.1 mol/L DPBS (pH 7.4). The mixture was vortexed for 1 min and then centrifuged at 3000 rpm for 15 min. Samples of the n-octanol (1 mL) and buffer (1 mL) layers were collected and measured in a gamma counter. LogD7.4 was calculated using the following equation: LogD7.4 = log10 [(counts in the n-octanol phase)/(counts in the buffer phase)].

[2] = Ex vivo biodistribution in PC-3 tumor-bearing mice; set-up: species or system NRG mice; details: mouse; for tissue to tissue ratio at 1 h: male, NRG (NOD.Cg-Rag1^tm1Mom Il2rg^tm1Wjl/SzJ), iv, total radioactivity; for tissue uptake at 1 h: intravenous
Method: (§1) For biodistribution studies, the mice were injected with the radiotracer (2–4 MBq) via the tail vein as described above. For blocking, the mice were co-injected with 100 μg of [D-Phe^6,Leu-NHEt^13,des-Met^14]Bombesin(6–14). At 1 h post-injection, the mice were anesthetized through isoflurane inhalation and euthanized through CO2 inhalation. Blood was collected through a cardiac puncture, and organs/tissues of interest were collected, weighed, and counted using a Perkin Elmer (Waltham, MA, USA) Wizard2 2480 automatic gamma counter.

PC-3 tumor xenografts [3] = test: Ex vivo biodistribution in PC-3 tumor-bearing mice; set-up: species or system NRG mice
Method: as §1

[4] = 15 min post-injection
Method: PET/CT imaging, biodistribution, and in vivo stability studies were conducted on male NOD.Cg-Rag1^tm1Mom Il2rg^tm1Wjl/SzJ (NRG) mice, following previously published procedures. The experiments were conducted according to the guidelines established by the Canadian Council on Animal Care and approved by the Animal Ethics Committee of the University of British Columbia (protocol number A20-0113, approved on 30 September 2020). […] Mice were used for PET/CT imaging and biodistribution studies when the tumor grew to 5–8 mm in diameter over around 4 weeks.
At 15 min post-injection, mice were sedated and euthanized, and urine and blood were collected. The plasma was extracted from whole blood by adding CH3CN (500 μL), vortex, centrifugation, and the separation of supernatant. The plasma and urine samples were analyzed via radio-HPLC using the conditions for quality control of these ^68Ga-labeled radioligands (Table S3).

PC-3 tumor xenografts [5] = test: PET/CT imaging of PC-3 tumor xenografts; assay type: in vivo, NRG mice; details: 1 h post-injection
Method: PET/CT imaging experiments were performed on a Siemens (Knoxville, TN) Inveon micro PET/CT scanner. The tumor-bearing mouse was injected with 3–5 MBq of ^68Ga-labeled tracer through a lateral caudal tail vein under anesthesia, followed by recovery and roaming freely in its cage during the uptake period. At 50 min post-injection, a 10 min CT scan was conducted first for the localization and attenuation correction after segmentation for reconstructing the PET images, followed by a 10 min static PET imaging acquisition.

[6] = co-injection of 100 μg [D-Phe6,Leu-NHEt13,des-Met14]Bombesin(6–14), 1 h post-injection

Work on `CC(C)C[C@H](NC(=O)[C@H](Cc1c[nH]cn1)NC(=O)CNC(=O)[C@@H](NC(=O)[C@H](C)NC(=O)[C@H](Cc1c[nH]c2ccccc12)NC(=O)[C@H](CCC(N)=O)NC(=O)[C@@H](Cc1ccccc1)NC(=O)CN1CCC(NC(=O)CN2CCN(CC(=O)O)CCN(CC(=O)O)CCN(CC(=O)O)CC2)CC1)C(C)C)C(=O)N1CSC[C@H]1C(N)=O` [[^68Ga]Ga-TacBOMB2, metal not drawn] yielded a logD [1] of -3.21 ± 0.03, a tissue to tissue ratio at 1 h ([2]; tumor and bone, 1 h blocked: co-injected with 100 µg of [D-Phe6,Leu-NHEt13,des-Met14]Bombesin(6-14), n = 4, read-out: Tumor/bone uptake ratio) of 8.94 ± 1.49 and a tissue to tissue ratio at 1 h ([2]; tumor and bone, 1 h post-injection, n = 4, read-out: Tumor/bone uptake ratio) of 28.9 ± 18.3. For the same compound, the tissue to tissue ratio at 1 h ([2]; tumor and intestines, 1 h blocked: co-injected with 100 µg of [D-Phe6,Leu-NHEt13,des-Met14]Bombesin(6-14), n = 4, read-out: Tumor/intestines uptake ratio) was 3.33 ± 0.67, the tissue to tissue ratio at 1 h ([2]; tumor and intestines, 1 h post-injection, n = 4, read-out: Tumor/intestines uptake ratio) was 10.5 ± 3.06 and the tissue to tissue ratio at 1 h ([2]; tumor and kidney, 1 h blocked: co-injected with 100 µg of [D-Phe6,Leu-NHEt13,des-Met14]Bombesin(6-14), n = 4, read-out: Tumor/kidney uptake ratio) was 0.47 ± 0.04. For the same compound, the tissue to tissue ratio at 1 h ([2]; tumor and kidney, 1 h post-injection, n = 4, read-out: Tumor/kidney uptake ratio) was 2.46 ± 0.33, the tissue to tissue ratio at 1 h ([2]; tumor and muscle, 1 h blocked: co-injected with 100 µg of [D-Phe6,Leu-NHEt13,des-Met14]Bombesin(6-14), n = 4, read-out: Tumor/muscle uptake ratio) was 7.14 ± 1.4 and the tissue to tissue ratio at 1 h ([2]; tumor and muscle, 1 h post-injection, n = 4, read-out: Tumor/muscle uptake ratio) was 57.9 ± 32.8. For the same compound, the tissue to tissue ratio at 1 h ([2]; tumor and pancreas, 1 h blocked: co-injected with 100 µg of [D-Phe6,Leu-NHEt13,des-Met14]Bombesin(6-14), n = 4, read-out: Tumor/pancreas uptake ratio) was 6.22 ± 0.67, the tissue to tissue ratio at 1 h ([2]; tumor and pancreas, 1 h post-injection, n = 4, read-out: Tumor/pancreas uptake ratio) was 4.64 ± 0.77 and the tissue to tissue ratio at 1 h ([2]; tumor and whole blood, 1 h post-injection, n = 4, read-out: Tumor/blood uptake ratio) was 16.4 ± 5.64. It also gave a tissue uptake at 1 h ([2]; PC-3 tumor, 100 ug, 1 h blocked: co-injected with 100 µg of [D-Phe6,Leu-NHEt13,des-Met14]Bombesin(6-14), n = 4, read-out: PC-3 tumor uptake) of 0.92 ± 0.22 %ID/g, a tissue uptake at 1 h ([2]; PC-3 tumor, 1 h post-injection, n = 4, read-out: PC-3 tumor uptake) of 5.95 ± 0.5 %ID/g and a tissue uptake at 1 h ([2]; blood, 100 ug, 1 h blocked: co-injected with 100 µg of [D-Phe6,Leu-NHEt13,des-Met14]Bombesin(6-14), n = 4, read-out: Blood uptake) of 0.55 ± 0.19 %ID/g. It also gave a tissue uptake at 1 h ([2]; blood, 1 h post-injection, n = 4, read-out: Blood uptake) of 0.39 ± 0.12 %ID/g, a tissue uptake at 1 h ([2]; bone, 100 ug, 1 h blocked: co-injected with 100 µg of [D-Phe6,Leu-NHEt13,des-Met14]Bombesin(6-14), n = 4, read-out: Bone uptake) of 0.1 ± 0.03 %ID/g and a tissue uptake at 1 h ([2]; bone, 1 h post-injection, n = 4, read-out: Bone uptake) of 0.26 ± 0.11 %ID/g. For the same compound, the tissue uptake at 1 h ([2]; brain, 100 ug, 1 h blocked: co-injected with 100 µg of [D-Phe6,Leu-NHEt13,des-Met14]Bombesin(6-14), n = 4, read-out: Brain uptake) was 0.02 %ID/g, the tissue uptake at 1 h ([2]; brain, muscle, fat, bone, liver, stomach, heart, and spleen, 1 h post-injection, read-out: Uptake values for the brain, muscle, fat, bone, liver, stomach, heart, and spleen) was less than 1 %ID/g and the tissue uptake at 1 h ([2]; fat, 100 ug, 1 h blocked: co-injected with 100 µg of [D-Phe6,Leu-NHEt13,des-Met14]Bombesin(6-14), n = 4, read-out: Fat uptake) was 0.07 ± 0.02 %ID/g. The tissue uptake at 1 h ([2]; fat, 1 h post-injection, n = 4, read-out: Fat uptake) was 0.1 ± 0.03 %ID/g, the tissue uptake at 1 h ([2]; heart, 100 ug, 1 h blocked: co-injected with 100 µg of [D-Phe6,Leu-NHEt13,des-Met14]Bombesin(6-14), n = 4, read-out: Heart uptake) was 0.16 ± 0.04 %ID/g and the tissue uptake at 1 h ([2]; heart, 1 h post-injection, n = 4, read-out: Heart uptake) was 0.14 ± 0.02 %ID/g. The tissue uptake at 1 h ([2]; intestines, 100 ug, 1 h blocked: co-injected with 100 µg of [D-Phe6,Leu-NHEt13,des-Met14]Bombesin(6-14), n = 4, read-out: Intestines uptake) was 0.28 ± 0.07 %ID/g, the tissue uptake at 1 h ([2]; intestines, 1 h post-injection, n = 4, read-out: Intestines uptake) was 0.6 ± 0.12 %ID/g and the tissue uptake at 1 h ([2]; kidneys, 100 ug, 1 h blocked: co-injected with 100 µg of [D-Phe6,Leu-NHEt13,des-Met14]Bombesin(6-14), n = 4, read-out: Kidneys uptake) was 1.99 ± 0.59 %ID/g. For the same compound, the tissue uptake at 1 h ([2]; kidneys, 1 h post-injection, n = 4, read-out: Kidneys uptake) was 2.43 ± 0.16 %ID/g, the tissue uptake at 1 h ([2]; lungs, 100 ug, 1 h blocked: co-injected with 100 µg of [D-Phe6,Leu-NHEt13,des-Met14]Bombesin(6-14), n = 4, read-out: Lungs uptake) was 0.39 ± 0.1 %ID/g and the tissue uptake at 1 h ([2]; lungs, 1 h post-injection, n = 4, read-out: Lungs uptake) was 0.39 ± 0.1 %ID/g. For the same compound, the tissue uptake at 1 h ([2]; pancreas, 100 ug, 1 h blocked: co-injected with 100 µg of [D-Phe6,Leu-NHEt13,des-Met14]Bombesin(6-14), n = 4, read-out: Pancreas uptake) was 0.15 ± 0.03 %ID/g, the tissue uptake at 1 h ([2]; pancreas, 1 h post-injection, n = 4, read-out: Pancreas uptake) was 1.3 ± 0.14 %ID/g and the tissue uptake at 1 h ([2]; spleen, 100 ug, 1 h blocked: co-injected with 100 µg of [D-Phe6,Leu-NHEt13,des-Met14]Bombesin(6-14), n = 4, read-out: Spleen uptake) was 0.18 ± 0.05 %ID/g. For the same compound, the tissue uptake at 1 h ([2]; spleen, 1 h post-injection, n = 4, read-out: Spleen uptake) was 0.27 ± 0.1 %ID/g, the tissue uptake at 1 h ([2]; stomach, 100 ug, 1 h blocked: co-injected with 100 µg of [D-Phe6,Leu-NHEt13,des-Met14]Bombesin(6-14), n = 4, read-out: Stomach uptake) was 0.13 ± 0.06 %ID/g and the tissue uptake at 1 h ([2]; testes, 100 ug, 1 h blocked: co-injected with 100 µg of [D-Phe6,Leu-NHEt13,des-Met14]Bombesin(6-14), n = 4, read-out: Testes uptake) was 0.21 ± 0.16 %ID/g. For the same compound, the Tumor/blood uptake ratio (PC-3 tumor xenografts [3]; 1 h blocked: co-injected with 100 µg of [D-Phe6,Leu-NHEt13,des-Met14]Bombesin(6-14), n = 4) was 1.71 ± 0.18, the “reduction of average uptake in PC-3 tumor xenografts by co-injection of blocker” value (PC-3 tumor xenografts [3]; [6]) was 85% and the “reduction of average uptake in pancreas by co-injection of blocker” value (PC-3 tumor xenografts [3]; [6]) was 88%. The “reduction of average uptake in stomach by co-injection of blocker” value (PC-3 tumor xenografts [3]; [6]) was 76%, the “intact fraction in plasma” value ([4]; mouse plasma, n = 3) was 12.7 ± 2.93% and the “intact tracer in urine” value ([4]; mouse urine) was “no intact”. For the same compound, the “visualization of PC-3 tumor xenografts in PET images” value (PC-3 tumor xenografts [5]) was “clearly visualized” and the excretion pathway (PC-3 tumor xenografts [5]; PET images) was “primarily excreted via the renal pathway”.
